The target of assay [1] is T1, murine integrin α4β1 (Mus musculus, UniProt P09055+Q00651).
T1 construct: endogenous in cells; host or cells: 70Z3 cells
In words: 70Z3 cell adhesion to VCAM-1. Type of assay: cell-based.

For assay [2], the target named is T2, integrin α4β1 (Homo sapiens, UniProt P05556+P13612). In words: K562(α4β1) cell adhesion to CS-1. Also on record: expressed in transfected cells; host or cells: K562(α4β1) cells. Type of assay: cell-based. From the text:
A. Structure of TBC3486. B. Structure of THI0510 (TBC3486 modified with conjugatable linker [TBC3486-conj] for functionalization with reactive dye and/or chelator reagents). C. TBC3486 and THI0510 inhibition of α4β1-K562 cell adhesion to the CS-1 sequence from fibronectin.
A. Conjugated THI375 analogue. B. THI375 analogue conjugated to the fluorescent dye sulfo-Cy5 (THI526). C. Activity of THI527, THI526, and TBC-4746 in K562-α4β1/CS-1 adhesion assays performed in Mn++.
First attempts to generate an integrin α4β1 imaging agent took advantage of the TBC3486 core scaffold. Modifications to the core scaffold were generated to determine an appropriate site to which imaging conjugates could be attached (FIG. 1). […] Next, imaging agents were attached to this conjugation site and their activities tested in cell adhesion assays.

Assay [3] concerns the target T2, integrin α4β1. In words: K562(α4β1) cell adhesion to VCAM-1. Type of assay: cell-based. Also on record: expressed in transfected cells; host or cells: K562(α4β1) cells. On the procedure: A, B. Structure of THI520 and THI528. C. THI520 and THI0528 inhibition of α4β1-K562 cell adhesion to VCAM-1 (Mn++).
(§1) The core of this structure is different than that of TBC3486 (FIG. 3A). […] THI528 was tested for binding to integrin α4β1by flow cytometry (FIG. 4). Jurkat cells that express the integrin α4β1 (Jurkat(α4β1)), or mutagenized Jurkat cells that no longer express the integrin α4β1 (Jurkat(α4^null)), where incubated with increasing concentrations of THI528.

The target of assay [4] is T2, integrin α4β1. In words: Flow cytometry binding to K562(α4β1) cells. Also on record: expressed in transfected cells; host or cells: K562(α4β1) cells. The following applies: cations Mn. (A flow cytometer gives signals particle by particle.)
For assay [5], the target named is T2, integrin α4β1. In words: Flow cytometry binding to Jurkat cells. The settings on record: for IC50: Jurkat, Flow Cytometry, Human. On the procedure:
B. Individual histograms of 10 nM dose of THI528±EDTA.
as §1

The target in assay [6] is T1, murine integrin α4β1. In words: Flow cytometry binding to 70Z3 cells. The settings on record: 70Z3, Flow Cytometry, cations Mn.
Setting [7] is: 70Z3, substrate VCAM-1, cations Ca/Mg.
The mark [8] stands for this setting: 70Z3, substrate VCAM-1, cations Mn.
Where [9] appears, read: K562(α4β1), substrate CS-1, cations Mn, Human.
Setting [10] is: K562(α4β1), substrate VCAM-1, cations Ca/Mg, Human (low affinity α4β1 adhesion assay), read-out: Activity (IC50) (converted).

T2 sequence (P13612 34-1032): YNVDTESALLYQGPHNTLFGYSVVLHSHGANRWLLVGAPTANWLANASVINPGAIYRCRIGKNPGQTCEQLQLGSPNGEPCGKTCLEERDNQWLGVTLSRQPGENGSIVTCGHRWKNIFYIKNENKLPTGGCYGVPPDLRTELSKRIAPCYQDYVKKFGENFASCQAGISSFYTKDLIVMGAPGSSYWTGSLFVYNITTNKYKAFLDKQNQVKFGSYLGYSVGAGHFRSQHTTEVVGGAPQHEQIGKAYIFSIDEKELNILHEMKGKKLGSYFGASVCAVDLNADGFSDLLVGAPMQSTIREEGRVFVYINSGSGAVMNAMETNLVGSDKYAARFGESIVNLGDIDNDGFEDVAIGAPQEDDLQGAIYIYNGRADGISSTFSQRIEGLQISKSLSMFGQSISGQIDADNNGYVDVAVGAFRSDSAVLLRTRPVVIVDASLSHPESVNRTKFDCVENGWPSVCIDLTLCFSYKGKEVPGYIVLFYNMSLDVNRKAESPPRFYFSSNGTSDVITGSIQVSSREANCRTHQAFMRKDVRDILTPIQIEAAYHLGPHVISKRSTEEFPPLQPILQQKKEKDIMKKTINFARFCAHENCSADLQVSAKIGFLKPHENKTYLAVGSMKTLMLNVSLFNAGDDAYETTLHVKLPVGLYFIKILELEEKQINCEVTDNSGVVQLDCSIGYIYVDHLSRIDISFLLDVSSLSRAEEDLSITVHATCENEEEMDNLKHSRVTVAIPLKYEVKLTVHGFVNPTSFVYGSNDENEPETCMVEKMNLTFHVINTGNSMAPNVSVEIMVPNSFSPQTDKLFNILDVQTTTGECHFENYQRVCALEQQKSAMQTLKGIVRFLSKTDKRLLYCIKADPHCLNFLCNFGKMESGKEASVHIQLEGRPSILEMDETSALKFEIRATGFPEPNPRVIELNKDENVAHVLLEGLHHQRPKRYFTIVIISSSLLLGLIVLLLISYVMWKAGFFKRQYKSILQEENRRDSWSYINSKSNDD
T2 sequence (P05556 21-798): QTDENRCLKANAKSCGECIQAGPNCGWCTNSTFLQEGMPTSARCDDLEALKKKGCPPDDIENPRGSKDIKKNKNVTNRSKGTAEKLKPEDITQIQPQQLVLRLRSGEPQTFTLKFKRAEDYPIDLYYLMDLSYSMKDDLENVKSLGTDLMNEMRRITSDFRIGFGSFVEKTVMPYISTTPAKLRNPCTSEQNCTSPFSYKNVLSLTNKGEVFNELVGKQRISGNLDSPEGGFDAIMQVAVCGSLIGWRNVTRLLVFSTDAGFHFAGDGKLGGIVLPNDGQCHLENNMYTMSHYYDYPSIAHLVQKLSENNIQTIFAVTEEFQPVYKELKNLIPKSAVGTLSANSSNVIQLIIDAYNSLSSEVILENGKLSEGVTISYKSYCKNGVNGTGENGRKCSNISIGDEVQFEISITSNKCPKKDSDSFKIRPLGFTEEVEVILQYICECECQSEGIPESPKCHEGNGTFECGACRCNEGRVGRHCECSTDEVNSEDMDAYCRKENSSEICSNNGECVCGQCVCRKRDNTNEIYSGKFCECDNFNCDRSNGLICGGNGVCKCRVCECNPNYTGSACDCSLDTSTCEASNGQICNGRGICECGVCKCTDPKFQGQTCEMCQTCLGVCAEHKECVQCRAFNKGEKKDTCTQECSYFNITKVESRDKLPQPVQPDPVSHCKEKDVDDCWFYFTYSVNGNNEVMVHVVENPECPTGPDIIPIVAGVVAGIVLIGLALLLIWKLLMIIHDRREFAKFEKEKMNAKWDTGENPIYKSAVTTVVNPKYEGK
T1 sequence (Q00651 41-1039): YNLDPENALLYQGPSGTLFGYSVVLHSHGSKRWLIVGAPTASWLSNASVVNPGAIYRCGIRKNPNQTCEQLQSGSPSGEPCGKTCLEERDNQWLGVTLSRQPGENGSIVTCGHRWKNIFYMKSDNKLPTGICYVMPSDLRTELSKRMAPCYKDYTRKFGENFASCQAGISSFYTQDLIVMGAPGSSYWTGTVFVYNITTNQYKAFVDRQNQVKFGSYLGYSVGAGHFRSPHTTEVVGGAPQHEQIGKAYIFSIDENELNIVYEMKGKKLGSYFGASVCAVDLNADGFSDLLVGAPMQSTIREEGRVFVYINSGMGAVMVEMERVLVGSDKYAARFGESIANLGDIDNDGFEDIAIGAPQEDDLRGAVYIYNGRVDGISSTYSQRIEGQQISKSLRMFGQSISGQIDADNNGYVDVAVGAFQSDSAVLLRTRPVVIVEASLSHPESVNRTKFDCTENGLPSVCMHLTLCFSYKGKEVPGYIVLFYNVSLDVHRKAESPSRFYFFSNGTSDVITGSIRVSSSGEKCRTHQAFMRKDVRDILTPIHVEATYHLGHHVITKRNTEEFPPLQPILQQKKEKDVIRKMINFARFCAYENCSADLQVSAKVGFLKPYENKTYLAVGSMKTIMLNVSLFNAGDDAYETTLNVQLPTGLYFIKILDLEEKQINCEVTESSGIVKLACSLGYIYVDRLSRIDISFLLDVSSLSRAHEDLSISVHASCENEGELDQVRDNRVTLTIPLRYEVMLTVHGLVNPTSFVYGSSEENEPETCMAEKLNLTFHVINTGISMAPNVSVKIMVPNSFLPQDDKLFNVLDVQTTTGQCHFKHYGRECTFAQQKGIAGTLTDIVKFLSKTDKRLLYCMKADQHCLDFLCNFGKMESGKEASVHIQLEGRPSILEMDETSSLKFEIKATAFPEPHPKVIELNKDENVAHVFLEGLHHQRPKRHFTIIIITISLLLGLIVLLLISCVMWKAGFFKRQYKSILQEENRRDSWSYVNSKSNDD
T1 sequence (P09055 21-798): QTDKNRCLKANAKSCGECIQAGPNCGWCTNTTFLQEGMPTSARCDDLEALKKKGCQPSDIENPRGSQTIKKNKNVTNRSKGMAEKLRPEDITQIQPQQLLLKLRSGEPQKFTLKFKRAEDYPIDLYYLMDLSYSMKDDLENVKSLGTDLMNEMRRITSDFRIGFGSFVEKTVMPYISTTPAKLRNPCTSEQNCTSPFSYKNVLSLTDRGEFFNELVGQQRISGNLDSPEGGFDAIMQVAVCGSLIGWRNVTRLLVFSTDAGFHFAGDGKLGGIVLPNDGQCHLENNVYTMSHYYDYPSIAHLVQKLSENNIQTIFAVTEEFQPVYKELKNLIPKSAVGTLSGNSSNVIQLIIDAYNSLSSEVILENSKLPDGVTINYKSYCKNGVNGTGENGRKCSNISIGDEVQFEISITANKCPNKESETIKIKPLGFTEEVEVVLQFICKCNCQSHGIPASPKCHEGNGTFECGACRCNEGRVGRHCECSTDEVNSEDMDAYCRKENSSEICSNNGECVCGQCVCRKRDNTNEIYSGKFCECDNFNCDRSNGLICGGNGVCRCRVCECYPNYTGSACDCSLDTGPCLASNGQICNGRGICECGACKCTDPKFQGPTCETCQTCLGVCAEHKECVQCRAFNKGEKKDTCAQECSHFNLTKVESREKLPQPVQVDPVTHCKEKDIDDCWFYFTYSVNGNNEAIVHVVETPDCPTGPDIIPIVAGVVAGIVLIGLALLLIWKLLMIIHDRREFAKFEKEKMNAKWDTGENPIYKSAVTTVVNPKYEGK

In general, IC50 refers to the concentration needed to halve the response being measured. For `Cc1ccc([C@H](CC(=O)O)NC(=O)Nc2c(O)c(C)cn(Cc3ccccc3Cl)c2=O)cc1` [THI375], the IC50 is 10300 nM in assay [1] (setting [7]); 127 nM in assay [1] (setting [8]); 2.2 ± 0.53 nM in assay [2] (setting [9]); 810 nM in assay [3] (setting [10]); 1.4 nM in assay [3] (K562(α4β1), substrate VCAM-1, cations Mn, Human, read-out: Activity (IC50) (converted)).
Take `C[N+]1=C(/C=C/C=C/C=C2/N(CCCCCC(=O)NCCCCCC(=O)NCCCC[C@@H](NC(=O)N[C@H](CC(=O)O)c3ccc4c(c3)OCO4)C(=O)N(Cc3cccs3)Cc3cccs3)c3ccc(S(=O)(=O)[O-])cc3C2(C)C)C(C)(C)c2cc(S(=O)(=O)O)ccc21` [THI517]: the IC50 in assay [2] (setting [9]) is 1700 ± 1000 nM; in assay [4], above 1000 nM.
Take `CCOc1cccc([C@H](CC(=O)[O-])NC(=O)Nc2c([O-])c(C)cn(Cc3c(Cl)cccc3OCC)c2=O)c1.[Na+].[Na+]` [THI520]: the IC50 in assay [1] (setting [7]) is 129 nM; in assay [1] (setting [8]) it was 0.75 nM; in assay [2] (setting [9]) it was 0.11 ± 0.04 nM; in assay [3] (setting [10]) it was 6.3 ± 3.1 nM. Moreover, the “activity in high affinity assays” value in assay [2] (high affinity α4β1 adhesion assays) was “pM activity”.
In the case of `CCOc1cccc([C@H](CC(=O)O)NC(=O)Nc2c(OCCCCCCNC(=O)CCCCC[N+]3=C(/C=C/C=C/C=C4/N(C)c5ccc(S(=O)(=O)[O-])cc5C4(C)C)C(C)(C)c4cc(S(=O)(=O)[O-])ccc43)c(C)cn(Cc3c(Cl)cccc3OCC)c2=O)c1.[Na+]` [THI528], the Kd in assay [5] (Jurkat(α4β1) cells, flow cytometry, n=1, read-out: apparent Kd) turned out to be 0.26 nM. Further, the IC50 is 0.202 nM in assay [5] (cations Ca/Mg); 0.069 nM in assay [5] (cations Mn); 0.519 ± 0.097 nM in assay [3] (n=3, same value as Table 2 K562(α4β1)/VCAM-1/Mn, read-out: a4b1 IC50); 0.06 nM in assay [6]. Also, in assay [5] (flow cytometry, increasing concentrations), the “binding to Jurkat cells expressing α4β1” value is “Specific and saturable binding”. In addition, the “binding in presence of EDTA or to Jurkat cells lacking α4β1” value in assay [5] (flow cytometry, EDTA or Jurkat(α4β1) cells as printed) is given as “no detectable binding”. Also, in assay [3] (compared with THI520), the “antagonist activity after conjugation to sulfo-Cy5” value is listed as “no apparent loss in antagonist activity”.
In the case of `C[N+]1=C(/C=C/C=C/C=C2/N(CCCCCC(=O)NCCCCCC(=O)O)c3ccc(S(=O)(=O)[O-])cc3C2(C)C)C(C)(C)c2cc(S(=O)(=O)[O-])ccc21.[Na+]` [THI529], the “Activity (IC50)” value in assay [2] (K562(α4β1), substrate CS-1, cations Mn, Human, result in words) is on record as “No Activity (n = 3) K562(α4β1)”.
`CCOc1cccc([C@H](CC(=O)O)NC(=O)Nc2c(OCCCCCCNC(=O)C(CNC(=O)C(CNC(=O)CCCCC[N+]3=C(/C=C/C=C/C=C4/N(C)c5ccc(S(=O)(=O)[O-])cc5C4(C)C)C(C)(C)c4cc(S(=O)(=O)O)ccc43)S(=O)(=O)O)S(=O)(=O)O)c(C)cn(Cc3c(Cl)cccc3OCC)c2=O)c1` (stereo partly shown) [THI540] gave an IC50 in assay [5] (cations Mn) of 0.078 ± 0.037 nM.
